In patent publication US6140317A, “Pyrrolopyrimidines and processes for their preparation” (Novartis AG, priority 1996, dated 2000):

Experiments:
[1] = molecular target: T1, EGF-receptor-specific tyrosine protein kinase (EGF-R-PTK; EGF-R ICD) (Homo sapiens, UniProt P00533); assay: Inhibition of the EGF-receptor-specific tyrosine kinase (recombinant intracellular domain of the EGF receptor); type: biochemical
T1 construct: recombinant intracellular domain of the EGF receptor
Description: The compounds of formula I inhibit the enzyme activity in comparison with the control without inhibitor by 50% (IC50), for example in a concentration of from 0.001 to 20 μM, especially from 0.01 to 5 μM.
Inhibition of the EGF-receptor-specific Tyrosine Kinase
In accordance with the method mentioned above and using the recombinant intracellular domain of the EGF receptor (Europ. J. Biochem. 207, 265-275 (1992)), the following IC50 values are obtained: […]

[2] = test system: BALB/MK cells; assay: Inhibition of the growth of BALB/MK (mouse keratinocyte) cells in vitro, methylene blue staining; type: cell-based; conditions: 72 h, incubated for three days
Description: In a known test method (see Meyer et al., Int. J. Cancer 43, 851 (1989)) the inhibitory action of the compounds of formula I is determined briefly as follows: BALB/MK cells (10 000/microtiter plate well) are transferred to 96-well microtiter plates. The test compounds (dissolved in DMSO) are added in a series of concentrations (dilution series), so that the final concentration of DMSO is no greater than 1% (v/v). After the addition, the plates are incubated for three days, during which time the control cultures without test compound are able to undergo at least three cell division cycles. The growth of the MK cells is measured by means of methylene blue staining: after the incubation the cells are fixed with glutaraldehyde, washed with water and stained with 0.05% methylene blue. After a washing step, the stain is eluted with 3% HCl and the optical density per well of the microtitre plate is measured using a Titertek multiskan at 665 nm. IC50 values are determined by means of a computer-aided system using the formula
IC50 =[(ODtest -ODstart)/(ODcontrol
The IC50 value in those experiments is defined as that concentration of the test compound in question which results in a 50% decrease in the number of cells in comparison with the control without inhibitor.
The growth of BALB/MK cells in the presence of compounds of formula I is tested in accordance with the procedure described above. […]

[3] = molecular target: v-abl kinase (Abelson murine leukemia virus, UniProt P00521); assay: Inhibition of the v-abl kinase ([Val5]-angiotensin II and [gamma-32P]-ATP as substrates); type: biochemical; conditions: v-abl tyrosine kinase
v-abl kinase, sequence (P00521 whole entry): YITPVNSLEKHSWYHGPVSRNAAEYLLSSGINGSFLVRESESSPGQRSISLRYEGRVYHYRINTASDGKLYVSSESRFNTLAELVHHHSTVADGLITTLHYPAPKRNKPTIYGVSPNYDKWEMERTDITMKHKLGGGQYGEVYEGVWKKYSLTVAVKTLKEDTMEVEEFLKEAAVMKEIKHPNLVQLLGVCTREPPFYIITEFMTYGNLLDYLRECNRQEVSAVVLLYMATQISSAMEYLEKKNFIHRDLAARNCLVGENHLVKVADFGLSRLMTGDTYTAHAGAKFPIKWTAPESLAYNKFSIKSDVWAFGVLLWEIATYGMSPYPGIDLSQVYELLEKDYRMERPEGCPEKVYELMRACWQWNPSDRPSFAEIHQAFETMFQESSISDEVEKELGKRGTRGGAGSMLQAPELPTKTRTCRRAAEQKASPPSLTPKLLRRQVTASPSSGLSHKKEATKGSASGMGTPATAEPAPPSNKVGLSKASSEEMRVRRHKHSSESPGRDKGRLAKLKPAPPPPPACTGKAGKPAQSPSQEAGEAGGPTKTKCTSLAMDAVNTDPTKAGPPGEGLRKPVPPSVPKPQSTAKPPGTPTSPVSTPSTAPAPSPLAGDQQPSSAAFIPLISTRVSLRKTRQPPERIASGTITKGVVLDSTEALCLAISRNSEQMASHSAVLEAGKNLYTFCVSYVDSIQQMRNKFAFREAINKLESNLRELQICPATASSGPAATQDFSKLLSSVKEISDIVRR
Description: The above-mentioned inhibition of the v-abl tyrosine kinase is determined in accordance with the methods of N. Lydon et at, Oncogene Research 5, 161-173 (1990) and J. F. Geissler et al., Cancer Research 52, 4492-4498 (1992), with [Val^5 ]-angiotensin II and [γ -^32 P]-ATP being used as substrates.
In accordance with the procedure mentioned above (Oncogene Research 5, 161-173 (1990) and Cancer Research 52, 4492-4498 (1992), the following IC50 values are obtained: […]

T1 sequence (P00533 669-1210 limits assumed): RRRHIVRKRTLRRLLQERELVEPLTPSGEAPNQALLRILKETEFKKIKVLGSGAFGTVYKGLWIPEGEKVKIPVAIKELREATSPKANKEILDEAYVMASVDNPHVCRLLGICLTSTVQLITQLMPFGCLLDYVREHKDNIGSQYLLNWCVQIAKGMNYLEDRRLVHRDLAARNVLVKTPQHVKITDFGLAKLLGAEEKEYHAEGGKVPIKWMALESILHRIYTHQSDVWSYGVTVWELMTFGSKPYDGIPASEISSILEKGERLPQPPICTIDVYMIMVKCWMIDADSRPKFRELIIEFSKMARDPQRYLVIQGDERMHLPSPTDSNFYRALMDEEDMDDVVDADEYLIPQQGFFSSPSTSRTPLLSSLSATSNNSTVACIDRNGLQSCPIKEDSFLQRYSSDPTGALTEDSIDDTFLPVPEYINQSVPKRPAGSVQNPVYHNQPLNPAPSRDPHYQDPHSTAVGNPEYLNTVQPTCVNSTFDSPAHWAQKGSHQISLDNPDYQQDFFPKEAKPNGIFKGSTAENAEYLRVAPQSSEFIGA

| SMILES | IC50 [1] | IC50 [2] | IC50 [3] |
| --- | --- | --- | --- |
| Cc1[nH]c2ncnc(N3CCc4ccccc43)c2c1C [Example 1, 4-(2,3-Dihydroindol-1-yl)-5,6-dimethyl-7H-pyrrolo[2,3-d]pyrimidine] | 1560 nM | – | – |
| Cc1[nH]c2ncnc(N3CCCc4ccccc43)c2c1C [Example 5, 4-(1,2,3,4-Tetrahydroquinolin-1-yl)-5,6-dimethyl-7H-pyrrolo[2,3-d]pyrimidine] | 2690 nM | – | – |
| Nc1ccc(-c2cc3c(N4CCc5ccccc54)ncnc3[nH]2)cc1 [Example 7, 4-(2,3-Dihydroindol-1-yl)-6-(4-amino-phenyl)-7H-pyrrolo[2,3-d]pyrimidine] | 210 nM | 15800 nM | 78 nM |
| Nc1ccc(-c2cc3c(N4CCCc5ccccc54)ncnc3[nH]2)cc1 [Example 11, 4-(1,2,3,4-Tetrahydroquinolin-1-yl)-6-(4amino-phenyl)-7H-pyrrolo[2.3-d]-pyrimidine] | 26 nM | 760 nM | 2 nM |
